Consider 14 molecules from PMC6822569 (Journal of medicinal chemistry, 2019).

Like-named read-outs stand apart in the source and are kept apart here.

The test system of data set [1] is P. falciparum Dd2. The experiment in a line: microbe, parasite or virus in culture. In kind it is cell-based.
The subject of another data set is P. falciparum Tm90-C2B. The experiment in a line: In vitro blood stage antimalarial activity, MSF assay, strain Tm90-C2B. The class given is cell-based. Conditions: read-out: blood stage IC50 vs P. falciparum Tm90-C2B; Tm90-C2B: Atovaquone resistant clinical isolate.
The test system of a further data set is HepG2. Briefly: HepG2 cytotoxicity assay. The class given is cell-based, human.
The next data set has as its system P. yoelii. The experiment in a line: In vivo blood stage efficacy, modified 4-day test in murine P. yoelii model. The settings on record: after 80 mg/kg × 4 days oral dosing.
The target of data set [2] is hERG (human-ether-a-go-go-related gene) potassium channel (Homo sapiens, UniProt Q12809). Briefly: hERG potassium channel current, automatic parallel patch clamp. The class given is cell-based.
hERG (human-ether-a-go-go-related gene) potassium channel, sequence (Q12809 whole entry): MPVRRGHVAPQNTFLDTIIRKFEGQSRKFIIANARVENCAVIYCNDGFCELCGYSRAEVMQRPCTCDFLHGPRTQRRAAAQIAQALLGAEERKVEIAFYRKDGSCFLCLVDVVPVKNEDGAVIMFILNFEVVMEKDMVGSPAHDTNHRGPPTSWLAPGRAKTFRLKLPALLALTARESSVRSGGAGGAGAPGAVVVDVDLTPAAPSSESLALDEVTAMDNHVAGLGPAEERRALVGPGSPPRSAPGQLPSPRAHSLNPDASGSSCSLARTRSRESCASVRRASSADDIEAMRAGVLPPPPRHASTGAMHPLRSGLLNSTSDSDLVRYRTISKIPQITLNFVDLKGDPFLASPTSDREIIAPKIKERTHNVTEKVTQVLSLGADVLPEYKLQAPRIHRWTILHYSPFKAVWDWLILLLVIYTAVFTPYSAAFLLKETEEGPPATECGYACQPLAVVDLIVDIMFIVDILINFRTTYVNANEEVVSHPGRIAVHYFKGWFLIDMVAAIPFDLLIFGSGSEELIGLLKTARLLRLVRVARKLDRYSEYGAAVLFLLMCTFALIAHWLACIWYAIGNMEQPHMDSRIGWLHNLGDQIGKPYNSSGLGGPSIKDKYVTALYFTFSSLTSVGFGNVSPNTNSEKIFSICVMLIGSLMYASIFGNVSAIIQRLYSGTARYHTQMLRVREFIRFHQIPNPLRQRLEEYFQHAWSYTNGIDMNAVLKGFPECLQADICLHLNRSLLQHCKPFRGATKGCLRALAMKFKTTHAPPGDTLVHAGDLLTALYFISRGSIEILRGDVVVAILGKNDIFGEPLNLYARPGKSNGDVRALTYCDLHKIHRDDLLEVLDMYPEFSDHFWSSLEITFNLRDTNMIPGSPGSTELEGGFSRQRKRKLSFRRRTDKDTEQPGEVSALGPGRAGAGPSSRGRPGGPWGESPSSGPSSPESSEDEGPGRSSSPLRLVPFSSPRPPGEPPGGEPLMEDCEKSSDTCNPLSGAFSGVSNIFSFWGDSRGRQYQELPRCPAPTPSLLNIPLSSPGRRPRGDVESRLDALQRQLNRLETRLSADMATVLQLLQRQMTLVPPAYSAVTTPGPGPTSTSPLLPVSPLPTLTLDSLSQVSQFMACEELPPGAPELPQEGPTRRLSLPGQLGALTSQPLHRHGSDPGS
The nature of data set [3]: In vitro metabolic stability, human liver microsomes. The settings on record: 1 μM.
Data set [4] can be described thus: In vivo pharmacokinetic study, single oral dose in mice, plasma and liver.
Data set [5] concerns P. falciparum Dd2. Briefly: 72 h SYBR Green I drug susceptibility, parental Dd2. The class given is cell-based. The settings on record: Plasmodium falciparum, DD2, 72 h, read-out: Dd2 IC50.
The mark [6] stands for this setting: read-out: blood stage IC50 vs P. falciparum Dd2, Dd2: MDR strain with Old World genetic background.
Where [7] appears, read: liver, single oral dose of 80 mg/kg, mice.
[8] abbreviates: plasma, single oral dose of 80 mg/kg, mice.
The mark [9] stands for this setting: Plasmodium falciparum, DD2, read-out: blood stage IC50 vs P. falciparum Dd2.
Where [10] appears, read: male, ICR, mouse, liver, po, 80 mg/kg.

“1,2-Dichloro-6-(3-(dibutylamino)propoxy)acridin-9(10H)-one [compound 75]”: the IC50 in the data set with P. falciparum Dd2 [1] (setting [6]) was 0.041 nM. Besides, the IC50 in the data set with P. falciparum Tm90-C2B came out at 228 nM. In the data set on HepG2 (read-out: cytotoxicity IC50 vs HepG2, human hepatocarcinoma HepG2 cells), the half-maximal inhibitory concentration (IC50) is 54500 nM. Also, in the data set with P. yoelii, the “cure in murine P. yoelii model” value is “curative”. In addition, the “hERG activity (% inhibition at 10 uM)” value in data set [2] is recorded as 57%. Also, the “metabolic stability vs microsomes t1/2, human” value in data set [3] is 0.2 h. In data set [4] (setting [7]), this molecule returned an AUCinf of 169389 ng·h/mL, an AUClast of 167981 ng·h/mL, a CL/F of 8.95 mL/min/kg and a Cmax of 21269 ng/mL. Moreover, in data set [4] (setting [7]), the MRT b is recorded as 10.08 h, the Tmax came out at 2.75 h, the Vz/F turned out to be 3.605 L/kg and the t1/2 worked out at 4.63 h. In data set [4] (setting [8]), the AUCinf amounted to 3239 ng·h/mL, the AUClast was 3049 ng·h/mL, the CL/F came out at 431.32 mL/min/kg and the Cmax worked out at 226 ng/mL. Besides, in data set [4] (setting [8]), the MRT b came out at 6.96 h, the Tmax turned out to be 2.75 h, the Vz/F is 223.865 L/kg and the t1/2 worked out at 6.00 h.
In the case of “1,4-Dichloro-6-(3-(diethylamino)propoxy)acridin-9(10H)-one [compound 100]”, the IC50 with P. falciparum Dd2 [1] (setting [6]) was 1300 nM; in the data set on P. falciparum Tm90-C2B, > 2500 nM; with HepG2 it was 77000 nM. Moreover, in the data set on HepG2 (SI = IC50 (cytotoxicity)/IC50 (D6)), the “selectivity index (SI) (D6)” value is 152.
`COc1cc(NC(C)CCCN)c2ncccc2c1` (stereo not shown) [Primaquine, reference compound] came in with a Vd/F in data set [4] (male, ICR, mouse, in vivo, po, 80 mg/kg) of 4.42 L/kg.
For the molecule `CCN(CC)CCOc1ccc2c(=O)c3ccc(Cl)cc3[nH]c2c1` [compound 7, 3-chloro-6-(2-(diethylamino)ethoxy)acridin-9(10H)-one], in the data set with P. falciparum Dd2 [1] (setting [9]), the IC50 is 41 nM.
As to `CCN(CC)CCOc1ccc2c(=O)c3c(F)cc(F)cc3[nH]c2c1` [compound 46, 6-(2-(Diethylamino)ethoxy)-1,3-difluoroacridin-9(10H)-one], the IC50 with P. falciparum Dd2 [1] (setting [9]) came to 16 nM.
With `CCCN(CCC)CCOc1ccc2c(=O)c3c(F)cc(F)cc3[nH]c2c1` [compound 48, 6-(2-(Dipropylamino)ethoxy)-1,3-difluoroacridin-9(10H)-one], in the data set on P. yoelii, the “cure in murine P. yoelii model” value was “curative”. Further, in data set [4] (setting [10]), the CL/F is 15.5 mL/min/kg and the Vd/F turned out to be 14 L/kg. The CL/F in data set [4] (setting [8]) stood at 407.77 mL/min/kg.
`CCCN(CCC)CCCOc1ccc2c(=O)c3c(F)cc(F)cc3[nH]c2c1` [compound 52, 6-(3-(Dipropylamino)propoxy)-1,3-difluoroacridin-9(10H)-one]: in data set [4] (setting [10]), the CL/F is 5.8 mL/min/kg and the Vd/F came to 3.48 L/kg.
`O=c1c2ccc(OCCCCl)cc2[nH]c2ccc(Cl)c(Cl)c12` [compound 71, 1,2-Dichloro-6-(3-chloropropoxy)acridin-9(10H)-one]: in the data set on P. falciparum Dd2 [1] (setting [9]), the IC50 was found to be 17 nM.
In the case of `CCN(CC)CCOc1ccc2c(=O)c3c(Cl)c(Cl)ccc3[nH]c2c1` [compound 73, 1,2-Dichloro-6-(2-(diethylamino)ethoxy)acridin-9(10H)-one], the results for the IC50 in the data set with P. falciparum Dd2 [1] (setting [9]) and in the data set with P. falciparum Dd2 [5] were 12 nM and 40 ± 5.5 nM, respectively.
Consider `CCCN(CCC)CCOc1ccc2c(=O)c3c(Cl)c(Cl)ccc3[nH]c2c1` [compound 74, 1,2-Dichloro-6-(2-(dipropylamino)ethoxy)acridin-9(10H)-one], for which the IC50 in the data set on P. falciparum Dd2 [1] (setting [9]) is 0.05 nM. Further, in the data set on P. yoelii, the “cure in murine P. yoelii model” value is “curative”. In data set [4] (setting [10]), the CL/F was 2.45 mL/min/kg and the Vd/F was 0.392 L/kg.
As to `CN1CCCC1CCOc1ccc2c(=O)c3c(Cl)c(Cl)ccc3[nH]c2c1` (stereo not shown) [compound 76, 1,2-Dichloro-6-(2-(1-methylpyrrolidin-2-yl)ethoxy)acridin-9(10H)-one], the half-maximal inhibitory concentration (IC50) in the data set on P. falciparum Dd2 [1] (setting [9]) came out at 172 nM.
On the same count and under the same terms, in the case of `CC(C)(C)NCCOc1ccc2c(=O)c3c(Cl)c(Cl)ccc3[nH]c2c1` [compound 78, 6-(2-(tert-Butylamino)ethoxy)-1,2-dichloroacridin-9(10H)-one] it was 679 nM; in that of `O=c1c2ccc(OCCNC34CC5CC(CC(C5)C3)C4)cc2[nH]c2ccc(Cl)c(Cl)c12` [compound 81, 6-(2-((Adamantan-1-yl)amino)ethoxy)-1,2-dichloroacridin-9(10H)-one], 77 nM.
Turning to `CCN(CC)CCOc1ccc2[nH]c3cc(Cl)ccc3c(=O)c2c1` [compound 128, 6-chloro-2-(2-(diethylamino)ethoxy)acridin-9(10H)-one], in the data set on P. falciparum Dd2 [1] (setting [9]), the IC50 is 132 nM.
